The target in assay [1] is T1, Mcl-1/Bim interaction, recombinant human Mcl-1 (171-327) (Homo sapiens, UniProt Q07820).
T1 construct: made in house
The assay is described as follows: Cell free Mcl-1: Bim Affinity Assay (Mcl-1 HTRF). Type of assay: binding. In outline:
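Read-out is time-resolved FRET after overnight incubation, using a biotin-labelled peptide from human Bim (51-76) as the binding partner; IC50 was derived from competition curves.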
For orientation: Time-resolved FRET reads energy transfer from a long-lived donor to a nearby acceptor.

Assay [2] deals with OPM-2 human multiple myeloma cell line. The assay is described as follows: Cell Viability Assay (OPM-2 10 FBS). The class given is cell-based. As to conditions: OPM-2 cells, CellTiter-Glo. In outline:
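Plated at 3000 cells/well in 10% FBS complete medium, the cells received a serial compound dilution series and incubated 16 h at 37 °C with 5% CO2. CellTiter-Glo was then added; IC50 values were fitted with a logistic 4-parameter model.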

[3] abbreviates: TR-FRET, 0.1 nM Mcl-1 (171-327), 0.05 nM biotin-Bim (51-76).
The mark [4] stands for this setting: cell free Mcl-1:Bim TR-FRET, recombinant human Mcl-1 (171-327).
The mark [5] stands for this setting: Homo sapiens, OPM-2, 16 h, 16 h.
[6] abbreviates: Homo sapiens, OPM-2, 16 h, 16 h incubation.

T1 sequence (Q07820 171-327): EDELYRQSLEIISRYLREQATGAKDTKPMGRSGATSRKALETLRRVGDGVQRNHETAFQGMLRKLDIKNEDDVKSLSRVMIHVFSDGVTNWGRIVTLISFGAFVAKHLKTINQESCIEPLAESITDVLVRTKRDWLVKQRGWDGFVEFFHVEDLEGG

As to `O=C1NS(=O)(=O)[C@@H](CCS(=O)(=O)Cc2ccccc2)CC/C=C/[C@H](O)[C@@H]2CC[C@H]2CN2C[C@@]3(CCCc4cc(Cl)ccc43)COc3ccc1cc32` (single isomer, unassigned) [Example 162], the IC50 in assay [1] (setting [3]) was determined as 0.979 nM; in assay [2] (16 h), 8400 nM.
“(1S,3′R,6′R,7′S,11′S,13′R)-6-chloro-13′-methyl-3,4-dihydro-2H,17′H-spiro[naphthalene-1,24′-[8,12,22]trioxa[15]thia[1,16]diazapentacyclo[16.7.2.1^7,11.0^36.0^21,26]octacosa[18,20,26]trien]-17′-one 15′,15′-dioxide [Example 920]”: the IC50 in assay [1] (setting [4]) came out at 1.86 nM; in assay [2] (16 h) it was 4350 nM.
As to `COCC[C@@H]1[C@@H](C)C/C=C/[C@H](O)[C@@H]2CC[C@H]2CN2C[C@@]3(CCCc4cc(Cl)ccc43)COc3ccc(cc32)C(=O)NS1(=O)=O` (single isomer, unassigned) [Example 393], the IC50 in assay [1] (setting [3]) was 0.213 nM; in assay [2] (16 h) it was 137 nM.
In the case of `O=C1NS(=O)(=O)[C@@H]2CCCC[C@H]2C/C=C/[C@H](O)[C@@H]2CC[C@H]2CN2C[C@@]3(CCCc4cc(Cl)ccc43)COc3ccc1cc32` (single isomer, unassigned) [Example 331], the IC50 worked out at 0.248 nM in assay [1] (setting [3]) and 284 nM in assay [2] (setting [5]).
As for `CC(C)C[C@H](O[C@H]1/C=C/C[C@H](C)[C@@H](C)S(=O)(=O)NC(=O)c2ccc3c(c2)N(C[C@@H]2CC[C@H]21)C[C@@]1(CCCc2cc(Cl)ccc21)CO3)C(=O)N(C)C` (single isomer, unassigned) [Example 429], the figures for the IC50 in assay [1] (setting [3]) and in assay [2] (16 h) were 4.15 nM and 1320 nM, respectively.
On to `C[C@@H]1[C@@H](C)C/C=C/[C@H](OCCCl)[C@@H]2CC[C@H]2CN2C[C@@]3(CCCc4cc(Cl)ccc43)COc3ccc(cc32)C(=O)NS1(=O)=O` [Example 511, (1S,3′R,6′R,7′S,8′E,11′S,12′R)-6-chloro-7′-(2-chloroethoxy)-11′,12′-dimethyl-3,4-dihydro-2H,15′H-spiro[naphthalene-1,22′-[20]oxa[13]thia[1,14]diazatetracyclo[14.7.2.0^3,6.0^19,24]pentacosa [8,16,18,24]tetraen]-15′-one 13′,13′-dioxide], for which the half-maximal inhibitory concentration (IC50) stood at 1.5 nM in assay [1] (setting [4]) and 311 nM in assay [2] (setting [5]).
In the case of `CCN1[C@@H](C)CCC[C@H](O)[C@@H]2CC[C@H]2CN2C[C@@]3(CCCc4cc(Cl)ccc43)COc3ccc(cc32)C(=O)NS1(=O)=O` [Example 85, (1S,3′R,6′R,7′S,11′S)-6-chloro-12′-ethyl-7′-hydroxy-11′-methyl-3,4-dihydro-2H,15′H-spiro[naphthalene-1,22′-[20]oxa[13]thia[1,12,14]triazatetracyclo[14.7.2.0^3,6.0^19,24]pentacosa[16,18,24]trien]-15′-one 13′,13′-dioxide], the results for the IC50 in assay [1] (setting [3]) and in assay [2] (setting [5]) were 1.88 nM and 1910 nM, respectively.
Turning to `COCCOCC[C@@H]1[C@@H](C)C/C=C/[C@H](O)[C@@H]2CC[C@H]2CN2C[C@@]3(CCCc4cc(Cl)ccc43)COc3ccc(cc32)C(=O)NS1(=O)=O` (single isomer, unassigned) [Example 399], the half-inhibitory concentration (IC50) in assay [1] (setting [3]) is 0.239 nM; in assay [2] (16 h), 165 nM.
For the compound `CO[C@H]1/C=C/C(CO)C(C)CS(=O)(=O)NC(=O)c2ccc3c(c2)N(C[C@@H]2CC[C@H]21)C[C@@]1(CCCc2cc(Cl)ccc21)CO3` (single isomer, unassigned) [Example 126], the values for the 50% inhibitory concentration (IC50) in assay [1] (setting [3]) and in assay [2] (16 h) were 0.448 nM and 496 nM, respectively.
The like results for `CO[C@H]1/C=C/[C@@H]2CCC[C@H](C2)S(=O)(=O)NC(=O)c2ccc3c(c2)N(C[C@@H]2CC[C@H]21)C[C@@]1(CCCc2cc(Cl)ccc21)CO3` (single isomer, unassigned) [Example 108] were, in that order, 1.13 nM and 2250 nM.
On to `COCCOCC[C@@H]1[C@@H](C)C/C=C/[C@H](O)[C@@H]2CC[C@H]2CN2C[C@@]3(CCCc4cc(Cl)ccc43)COc3ccc(cc32)C(=O)NS1(=O)=O` (single isomer, unassigned) [Example 402], for which the figures for the IC50 in assay [1] (setting [3]) and in assay [2] (16 h) were 18.6 nM and 13600 nM, respectively.
Turning to `CC[C@@H]1CC/C=C/[C@H](OCC(=O)NCCOC)[C@@H]2CC[C@H]2CN2C[C@@]3(CCCc4cc(Cl)ccc43)COc3ccc(cc32)C(=O)NS1(=O)=O` [Example 1001, 2-(((1S,3′R,6′R,7′S,8′E,12′R)-6-chloro-12′-ethyl-13′,13′-dioxido-15′-oxo-3,4-dihydro-2H-spiro[naphthalene-1,22′-[20]oxa[13]thia[1,14]diazatetracyclo[14.7.2.0^3,6.0^19,24]pentacosa [8,16,18,24]tetraen]-7′-yl)oxy)-N-(2-methoxyethyl)acetamide], the IC50 came out at 0.573 nM in assay [1] (setting [3]) and 861 nM in assay [2] (setting [6]).
`CO[C@H]1C[C@@H](N2[C@@H](C)C/C=C/[C@H](O)[C@@H]3CC[C@H]3CN3C[C@@]4(CCCc5cc(Cl)ccc54)COc4ccc(cc43)C(=O)NS2(=O)=O)C1` [Example 77, (1S,3′R,6′R,7′S,8′E,11′S)-6-chloro-7′-hydroxy-12′-(cis-3-methoxycyclobutyl)-11′-methyl-3,4-dihydro-2H,15′H-spiro[naphthalene-1,22′-[20]oxa[13]thia[1,12,14]triazatetracyclo[14.7.2.0^3,6.0^19,24]pentacosa[8,16,18,24]tetraen]-15′-one 13′,13′-dioxide]: the IC50 in assay [1] (setting [3]) turned out to be 0.593 nM; in assay [2] (setting [5]) it was 442 nM.
As for `C[C@@H]1[C@@H](C)S(=O)(=O)NC(=O)c2ccc3c(c2)N(C[C@@H]2CC[C@H]2[C@@H](O)CC[C@@H]1C)C[C@@]1(CCCc2cc(Cl)ccc21)CO3` [Example 1045, (1S,3′R,6′R,7′S,10′S,11′S,12′R)-6-chloro-7′-hydroxy-10′,11′,12′-trimethyl-3,4-dihydro-2H,15′H-spiro[naphthalene-1,22′-[20]oxa[13]thia[1,14]diazatetracyclo[14.7.2.0^3,6.0^19,24]pentacosa [16,18,24]trien]-15′-one 13′,13′-dioxide], the IC50 in assay [1] (setting [3]) came to 0.294 nM; in assay [2] (setting [6]), 1140 nM.
Consider `COC(=O)CO[C@H]1/C=C/CC[C@@H](C)S(=O)(=O)NC(=O)c2ccc3c(c2)N(C[C@@H]2CC[C@H]21)C[C@@]1(CCCc2cc(Cl)ccc21)CO3` [Example 408, methyl(((1S,3′R,6′R,7′S,8′E,12′R)-6-chloro-12′-methyl-13′,13′-dioxido-15′-oxo-3,4-dihydro-2H-spiro[naphthalene-1,22′-[20]oxa[13]thia[1,14]diazatetracyclo[14.7.2.0^3,6.0^19,24]pentacosa [8,16,18,24]tetraen]-7′-yl)oxy)acetate], for which the figures for the IC50 in assay [1] (setting [3]) and in assay [2] (setting [5]) were 0.312 nM and 98.8 nM, respectively.
Take `COC1C=CC(CO)CC(C)S(=O)(=O)NC(=O)c2ccc3c(c2)N(CC2CCC21)CC1(CCCc2cc(Cl)ccc21)CO3` (single isomer, unassigned) [Example 128]: the results for the IC50 in assay [1] (setting [3]) and in assay [2] (setting [5]) were 0.603 nM and 2520 nM, respectively.
Take `COCCO[C@H]1/C=C/CCN(CCOC)S(=O)(=O)NC(=O)c2ccc3c(c2)N(C[C@@H]2CC[C@H]21)C[C@@]1(CCCc2cc(Cl)ccc21)CO3` [Example 48, (1S,3′R,6′R,7′S,8′E)-6-chloro-7′-(2-methoxyethoxy)-12′-(2-methoxyethyl)-3,4-dihydro-2H,15′H-spiro[naphthalene-1,22′-[20]oxa[13]thia[1,12,14]triazatetracyclo[14.7.2.0^3,6.0^19,24]pentacosa[8,16,18,24]tetraen]-15′-one 13′,13′-dioxide]: the 50% inhibitory concentration (IC50) in assay [1] (setting [3]) amounted to 0.562 nM; in assay [2] (setting [5]) it was 524 nM.
As to `COCCCO[C@H]1/C=C/C[C@H](C)N(CCCOC)S(=O)(=O)NC(=O)c2ccc3c(c2)N(C[C@@H]2CC[C@H]21)C[C@@]1(CCCc2cc(Cl)ccc21)CO3` (single isomer, unassigned) [Example 75], the concentration for half-maximal inhibition (IC50) in assay [1] (setting [3]) came to 1.66 nM; in assay [2] (setting [5]), 875 nM.
For the compound `O=C1NS(=O)(=O)[C@H](CC2CCOCC2)CC/C=C/[C@H](O)[C@@H]2CC[C@H]2CN2C[C@@]3(CCCc4cc(Cl)ccc43)COc3ccc1cc32` (single isomer, unassigned) [Example 187], the values for the 50% inhibitory concentration (IC50) in assay [1] (setting [3]) and in assay [2] (16 h) were 0.248 nM and 426 nM, respectively.
Turning to `CC(=O)O[C@H]1/C=C/C[C@@H]2CCCN2S(=O)(=O)NC(=O)c2ccc3c(c2)N(C[C@@H]2CC[C@H]21)C[C@@]1(CCCc2cc(Cl)ccc21)CO3` (single isomer, unassigned) [Example 346], the half-inhibitory concentration (IC50) in assay [1] (setting [3]) stood at 1.9 nM; in assay [2] (setting [5]), 2270 nM.
Regarding `NC(=O)OC[C@@H]1CC/C=C\[C@H](O)[C@@H]2CC[C@H]2CN2C[C@@]3(CCCc4cc(Cl)ccc43)COc3ccc(cc32)C(=O)NS1(=O)=O` (single isomer, unassigned) [Example 612], the concentration for half-maximal inhibition (IC50) in assay [1] (setting [4]) was determined as 0.362 nM; in assay [2] (setting [5]), 15200 nM.
With `Cc1noc(C)c1CO[C@H]1/C=C/CC[C@@H](C)S(=O)(=O)NC(=O)c2ccc3c(c2)N(C[C@@H]2CC[C@H]21)C[C@@]1(CCCc2cc(Cl)ccc21)CO3` [Example 409, (1S,3′R,6′R,7′S,8′E,12′R)-6-chloro-7′-((3,5-dimethyl-4-isoxazolyl)methoxy)-12′-methyl-3,4-dihydro-2H,15′H-spiro[naphthalene-1,22′-[20]oxa[13]thia[1,14]diazatetracyclo[14.7.2.0^3,6.0^19,24]pentacosa [8,16,18,24]tetraen]-15′-one 13′,13′-dioxide], the IC50 in assay [1] (setting [3]) came to 1.27 nM; in assay [2] (setting [5]), 751 nM.

Usually IC50 stands for the point on the concentration scale where inhibition reaches its midpoint.

For the origin of these results see patent US12091425B2 (AMGEN INC., priority 2016, dated 2024).
